# Experimental data: US8080524B2, “Agent for slowing hair loss and/or stimulating hair growth” (Centre National de la Recherche Scientifique (CNRS), priority 2005, dated 2011)
# Residues, ends and D or L forms follow the SMILES beside them.
# Experiments:
# [1] = system: cells in mitosis (Ki67) in epithelial sheath of human hair explants; experiment: Anti-Ki67 immunolabelling of cells in mitosis along the epithelial sheath of hairs; format: cell-based; details: for increase in number of cells in mitosis compared to control hair: D8 of treatment
# Method: (§1) Study of the stimulating activity of tetrapeptide AcSDKP on the growth of isolated hairs maintained in a state of ex vivo survival. This study was conducted on 66 human hair explants obtained from scalp-plasty.
# (§2) Hairs comprised of hair follicles were isolated by micro dissection and individually placed in wells (96-well culture plate) and maintained in survival for 15 days under conventional tissue culturing conditions (37° C., 5% CO2) in Williams medium.
# (§3) Tetrapeptide AcSDKP added to the culture medium was tested at three concentrations: 10^−4 M, 10^−7 M and 10^−10 M. Minoxidil (2/1 diamino 6-piperidinopyrimidine 3-oxide) at a concentration of 10^−5 M was used as a positive control.
# (§4) On D8 and D15 of treatment, six hairs from each batch (untreated control, Minoxidil, +AcSDKP 10^−4 M, +AcSDKP 10^−7 M, +AcSDKP 10^−10 M) were removed and prepared for histological study.
# (§5) Three explants from each batch were fixed in ordinary Bouin and the three other hairs were frozen and stored at −80° C.
# In addition to measurements of the length of each hair, the general morphology of each hair was analysed and the expression of laminin 5 and collagen IV, two constituents of the basal membrane, was evaluated. Moreover, immunolabeling with anti-Ki67 antibodies (nuclear protein expressed in growing cells) was carried out of cells in mitosis in order to establish the mitotic index of follicle structures.
# This study was conducted on cuts of frozen hairs.
# [2] = system: epithelial sheaths of human hair explants; experiment: General morphology of hair histological cuts stained with Masson Trichromium (neo-keratinocytes); format: cell-based
# Method: as §1, §2, §3, §4, §5
# Analysis of the general morphology of histological cuts stained with Masson Trichromium focusing on the area between the opening of the sebaceous glands and the hair bulb.
# Hairs cultured on D0 naturally undergo changes during survival as is observed after an in vivo graft. The restructuring effect of AcSDKP was visualised through the appearance of neo-keratinocytes along the conjunctival sheath which migrate from the bulge and to a lesser extent from the bulb, two regions where stem cells are found. […] This effect leads to clear appearance of neo-keratinocytes along the length of the hair, from the epidermis to the bulb. The structure of the neo-keratinocytes formed in this way is uniform and stratified. It varies as a function of treatment time and AcSDKP concentration. The clearest activity was found on D15 of treatment with AcSDKP at 10^−10 M.
# laminin 5 = experiment: Immunolabelling of laminin 5 in hair cuts; format: cell-based, human
# Method: Study of the stimulating activity of tetrapeptide AcSDKP on the growth of isolated hairs maintained in a state of ex vivo survival. This study was conducted on 66 human hair explants obtained from scalp-plasty. Hairs comprised of hair follicles were isolated by micro dissection and individually placed in wells (96-well culture plate) and maintained in survival for 15 days under conventional tissue culturing conditions (37° C., 5% CO2) in Williams medium. Tetrapeptide AcSDKP added to the culture medium was tested at three concentrations: 10^−4 M, 10^−7 M and 10^−10 M. Minoxidil (2/1 diamino 6-piperidinopyrimidine 3-oxide) at a concentration of 10^−5 M was used as a positive control. On D8 and D15 of treatment, six hairs from each batch (untreated control, Minoxidil, +AcSDKP 10^−4 M, +AcSDKP 10^−7 M, +AcSDKP 10^−10 M) were removed and prepared for histological study. Three explants from each batch were fixed in ordinary Bouin and the three other hairs were frozen and stored at −80° C. In addition to measurements of the length of each hair, the general morphology of each hair was analysed and the expression of laminin 5 and collagen IV, two constituents of the basal membrane, was evaluated. Moreover, immunolabeling with anti-Ki67 antibodies (nuclear protein expressed in growing cells) was carried out of cells in mitosis in order to establish the mitotic index of follicle structures. Laminin 5, another constituent of the basal membrane, is present in the bulb around the dermal papilla as well as in the median section of hair. […] Nevertheless, expression of laminin 5 was higher on D15 with AcSDKP at 10^−7 M (FIG. 4B).
# type IV collagen = experiment: Immunolabelling of type IV collagen on frozen hair cuts; format: cell-based, human
# Method: as §1, §2, §3
# On D8 and D15 of treatment, six hairs from each batch (untreated control, Minoxidil, +AcSDKP 10^−4 M, +AcSDKP 10^−7 M, +AcSDKP 10^−10 M) were removed and prepared for histological study. […]
# In addition to measurements of the length of each hair, the general morphology of each hair was analysed and the expression of laminin 5 and collagen IV, two constituents of the basal membrane, was evaluated. […]
# Immunolabelling of type IV collagen was carried out on frozen cuts of the control hairs and hairs treated with AcSDKP or Minoxidil in order to quantify this constituent of the basal membrane which separates the dermal compartment from the epithelial compartment.
# human hair explants = experiment: Growth (length) of isolated human hairs maintained in ex vivo survival; format: cell-based
# Method: as §1, §2, §3
# Culture mediums containing the compounds to be tested were renewed every three days.
# Hairs were photographed using a microscope and a CCD camera coupled to acquisition software and archiving.
# Each hair was measured on D0, D3, D6, D8, D10, D13 and D15 using a LEICA IM1000 measurement module to give measurements in μm.
# Each hair was photographed and its length evaluated using software giving values in μm.
# keratin 19 (CK19) = experiment: Immunolabelling of keratin 19 (CK19), epithelial stem cell marker, on frozen hair cuts; format: cell-based, human
# Method: as §1, §2, §3, §4, §5
# Immunolabeling of keratin 19 (CK19) was carried out on frozen cuts of control hairs and hairs treated with AcSDKP or Minoxidil in order to evaluate the proportion of undifferentiated primitive cells (or even stem cells) present in the external epithelial sheaths of the hair follicles. […]
structure (smiles),measurement,setting,value
"Nc1cc(N2CCCCC2)nc(N)[n+]1[O-] [Minoxidil, 2/1 diamino 6-piperidinopyrimidine 3-oxide, reference compound]",Average number of cells in mitosis per mm of hair,"[1]; 10^−5 M, D8",18.5 per mm of hair
same,increase in number of cells in mitosis compared to control hair,[1]; 10^−5 M,+38%
same,Average number of cells in mitosis per mm of hair,"[1]; 10^−5 M, D15",23.3 per mm of hair
"CC(=O)N[C@@H](CO)C(=O)N[C@@H](CC(=O)O)C(=O)N[C@@H](CCCCN)C(=O)N1CCC[C@H]1C(=O)O [AcSDKP, CH3CO-Ser-Asp-Lys-Pro-OH] (Ac-SDKP-OH)",thickness of neo-keratinocyte structure,"[2]; 10^−4 M, 10^−7 M and especially 10^−10 M, D15",increasingly thicker
same,adhesion of epithelial sheaths to collagen,"[2]; 10^−4 M, D8",more or less detached
same,neo-keratinocyte sites,"[2]; 10^−4 M, D8",absent
same,adhesion of epithelium to the underlying collagen,"[2]; two active concentrations (10^−7 M and 10^−10 M), D8",adheres fully
same,Average number of cells in mitosis per mm of hair,"[1]; 10^−4 M, D8",35.4 per mm of hair
same,Average number of cells in mitosis per mm of hair,"[1]; 10^−4 M, D15",23.4 per mm of hair
same,Average number of cells in mitosis per mm of hair,"[1]; 10^−7 M, D8",34 per mm of hair
same,Average number of cells in mitosis per mm of hair,"[1]; 10^−7 M, D15",21.5 per mm of hair
same,Average number of cells in mitosis per mm of hair,"[1]; 10^−10 M, D8",52.6 per mm of hair
same,increase in number of cells in mitosis compared to control hair,[1]; 10^−10 M,+300%
same,Average number of cells in mitosis per mm of hair,"[1]; 10^−10 M, D15",29.3 per mm of hair
same,number of cells in mitosis in treated hair compared to control hair,"[1]; three concentrations tested (10^−4 M, 10^−7 M, 10^−10 M)",significantly increases
same,expression of laminin 5,"laminin 5; 10^−7 M, D15",higher
same,laminin 5 effect in the median zone of hair,"laminin 5; 10^−10 M, D8 of treatment",considerably more marked
same,level of laminin 5 in hair structures,laminin 5; following exposure of hair to AcSDKP,significant increase
same,increase in collagen levels,"type IV collagen; 10^−10 M, D8 and D15",all the more marked
same,collagen IV in the bulb and median section of hair,"type IV collagen; three concentrations tested, as of D8 of treatment",very clear increase
same,hair growth (length of hair),"human hair explants; AcSDKP 10^−10 M in culture medium, D15 of treatment",significantly stimulates hair growth
same,hair growth (difference in the hair shafts),"human hair explants; AcSDKP at higher concentrations (10^−4 M, 10^−7 M), D15",no significant difference
same,increase in CK19 levels,"keratin 19 (CK19); 10^−10 M, D8 and D15 of treatment",maximal
same,expression of CK19 compared to control hair and to hair treated with Minoxidil,keratin 19 (CK19); hair kept in survival in the presence of the tetrapeptide,significantly greater
